The subject of one assay is sciatic nerve crush mice. The experiment in a line: Neuropathy induced by sciatic nerve crush, electrophysiological recording (CMAP). The format is in vivo, mouse. Particulars: for increase in the CMAP amplitude as compared to untreated mice: SDF-1α 30 μg/kg or μ/kg, IL-6 30 μ/kg s.c., significant at 15 dpl and 22dpl. The protocol:
[…] 8 week-old females C57bl/6 RJ mice (Elevage Janvier, Le Genest-St-Isle, France) were used. They were divided into 6 groups (n=6): • (a) nerve crush/Vehicle (Saline/0.02% BSA); • (b) nerve crush/SDF-1α (3 μg/kg); • (c) nerve crush/SDF-1α (10 μg/kg); • (d) nerve crush/SDF-1α (30 μg/kg); • (e) nerve crush/SDF-1α (100 μg/kg); • (f) nerve crush/IL-6 (30 μg/kg).
The animals were anaesthetized by inhalation of 3% Isoflurane (Baxter). The right sciatic nerve was surgically exposed at mid thigh level and crushed at 5 mm proximal to the trifurcation of the sciatic nerve. The nerve was crushed twice for 30s with a haemostatic forceps (width 1.5 mm; Koenig; Strasbourg; France) with a 90-degree rotation between each crush.
Electromyographical (EMG) testing was performed once before the surgery day and each week during 3 weeks following the operation.
The day of nerve crush surgery was considered as dpl 0 (dpl=day post lesion). No test was performed during the 4 days following the crush.
From the day of nerve injury to the end of the study, SDF-1α, IL-6 or Vehicle were administered daily by subcutaneous injections (s.c.) route, 5 days per week.
Electrophysiological recordings were performed using a Neuromatic 2000M electromyograph (EMG) (Dantec, Les Ulis, France). Mice were anaesthetized by inhalation of 3% Isofluran® (Baxter). The normal body temperature was maintained using a heated operating table (Minerve, Esternay, France).
Compound muscle action potential (CMAP) was measured in the gastrocnemius muscle after a single 0.2 ms stimulation of the sciatic nerve at a supramaximal intensity (12.8 mA). The amplitude (mV) and the latency (ms) of the action potential were measured on the operated leg. The measures was also registered on the contralateral (uncrushed) leg of Vehicle treated animals (Baseline). The amplitude is indicative of the number of active motor units, while the distal latency indirectly reflects motor nerve conduction and neuromuscular transmission velocities, which depends in part on the degree of myelination.
Global analysis of the data was performed using one-way ANOVA. Dunnett's test was used further, and data were compared to the “vehicle” control. The level of significance was set at a: p<0.001; b or **: p<0.01; c or *: p<0.05; d: p<0.1. The results were expressed as mean ±standard error of the mean (s.e.m.).
The sciatic nerve crush model described in Example 4 above was carried out to test SDF-1α variant as defined in SEQ ID NO: 4 and the mice were divided into the following 2 groups (n=6):
The SDF-1α variant used in this example and encoded by SEQ ID NO: 4 was expressed with an additional N terminal Methionine. The CMAP duration (time needed for a depolarization and a repolarization session) was also recorded.
The sciatic nerve crush model described in Example 4 above was carried out to test Met-SDF-1α (as defined in SEQ ID NO: 7) and the mice were divided into the following 2 groups (n=6):
(b) nerve crush/Met-SDF-1α variant at 100, 30, and 10 μg/kg s.c.

The test system of another assay is STZ-rats. Briefly: Von Frey filament test in STZ diabetic rats. It counts as in vivo, rat. Particulars: day 20 post-STZ; SDF-1α 10, 30, 100 μg/kg, IL-6 10 μg/kg s.c. The protocol: Eight week-old male Sprague Dawley rats (Janvier, Le Genest Saint Isle, France) were randomly distributed in 6 experimental groups (n=10) as shown below.
Diabetes was induced by intravenous injection of a buffered solution of streptozotocin (Sigma, L'Isle d'Abeau Chesnes, France) at a dose of 55 mg/kg. STZ was prepared in 0.1 mol/l citrate buffer pH 4.5. The control group received an equivalent volume of citrate buffer. The day of STZ injection was considered as D0.
Treatment with SDF-1α with IL-6 or their matched vehicle was performed on daily basis from D11 to D40.
The rat was placed on a metallic grid floor. The nociceptive testing was done by inserting the Von Frey filament (Bioseb, France) through the grid floor and applying it to the plantar surface of the hind paw. A trial consisted of several applications of the different von Frey filaments (at a frequency of 1-1.5 s). The Von Frey filaments were applied from filament 10 g to 180 g. The pressure that produces a brisk withdrawal of hind paw was considered as threshold value. Cuttoff value was set to 180 g.

Turning to “IL-6: reference (positive) control compound in nerve crush and STZ models [reference compound]”, the “increase in the CMAP amplitude as compared to untreated mice” value in the assay with sciatic nerve crush mice is “about 1.5 times”. In addition, in the assay on STZ-rats, the “threshold value in Von Frey test vs vehicle-treated diabetic rats” value was “significant increase”.
Take “SDF-1α: Human recombinant chemokine SDF-1α (SEQ ID NO: 1), produced in house, expressed in E. Coli cells”: in the assay on sciatic nerve crush mice (30 μg/kg s.c.), the “potency on CMAP latency compared with IL-6 (30 μg/kg)” value is “more potent than IL-6”. Moreover, in the assay on sciatic nerve crush mice, the “increase in the CMAP amplitude as compared to untreated mice” value is listed as “about 1.5 times”. The “CMAP latency vs vehicle treated mice” value in the assay with sciatic nerve crush mice (day 7, SDF-1α 30 μg/kg and 100 μg/kg, IL-6 30 μg/kg s.c.) is given as “significantly reduced”; with sciatic nerve crush mice (dpl 15 and 22, 30 μg/kg and 100 μg/kg s.c.), “significant effect”. Moreover, the “threshold value in Von Frey test vs vehicle-treated diabetic rats” value with STZ-rats is “significant increase”.

The values above are taken from patent publication US20080253996A1, “Use of Sdf-1 for the Treatment and/or Prevention of Neurological Diseases” (LABORATORIES SERONO SA, priority 2005, published 2008).
